This is an account of results in publication PMC7023466, “Novel N,N′-Disubstituted Acylselenoureas as Potential Antioxidant and Cytotoxic Agents” (Antioxidants, 2020).

Read-outs that look alike come from different tables or passages of the source. A value given as a limit tells only on which side of the number the result lay.

On the set-up of experiment [1]: method as in doi:10.1007/s11172-013-0228-5. Conditions: conditions not tested by the authors; cited from earlier work.
In experiment [2] the test system is HT-29 cells. Briefly: Protective effects against H2O2-induced oxidative stress (MTT). In kind it is cell-based, human. As to conditions: for increase fold of cell survival: compound 0.03 mg/mL, 12 h. On the procedure:
An H2O2-induced oxidative damage model on HT-29 cells was established, and the cell viability was evaluated by MTT assay, as a measurement of the antioxidant activity of the compounds. Asc was used as a positive control. Briefly, 1 × 10^4 HT-29 cells per well were grown in 96-well plates. After 12 h of incubation, DMSO; 4b, 8c, 9c, and 10b compounds; or Asc were added to each well at concentrations of 0.03 and 0.003 mg/mL, and incubated for 1 h. Subsequently, H2O2 (200, 250, and 300 µM) was added and the cells were incubated for 12 h to induce cell damage. An MTT assay was performed as mentioned previously. For each treatment, the mean cell viability was calculated from three independent experiments. The DMSO-treated controls were assigned with a cell viability value of 100% (Vcontrol). The results are expressed as the increase fold of cell survival, as follows:(3) Increase fold of cell survival = (Vsample−Vsample + H2O2)/VControl−VH2O2 where Vsample refers to the viability of the cells only treated with the corresponding compound, VH2O2 refers to the viability of the HT-29 cells exposed to H2O2, and Vsample + H2O2 refers to the cell survival of each treatment with a compound and H2O2. The data are expressed as increase fold of cell survival ± standard error of the mean (SEM) in at least three independent experiments performed in quadruplicates.

Experiment [3] relates to HT-29 cells. Briefly: MTT cell viability assay, HT-29. It is filed as cell-based. Conditions: Homo sapiens, 48 h, read-out: Growth (%) HT-29. The method in brief:
(§1)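 Cells were treated with compound for 48 h, either at 10 and 50 µM or at six concentrations from 0.1 to 100 µM. Viability was read by MTT at 570/630 nm, and IC50 was obtained by nonlinear fit from at least three experiments. SI is IC50(184B5 non-malignant)/IC50(MCF-7).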

The next experiment deals with MCF-7 cells. Kind of experiment: MTT cell viability assay, MCF-7. Conditions: for activity at 10 µM / activity at 50 µM: read-out: Growth (%) MCF-7; for reduction of cell growth: in at least one of the cell lines (MCF-7, HT-29, HTB-54). It is filed as cell-based, human. In outline:
as §1
Background: Formazan colour is commonly taken as a measure of viable cells.

A further experiment relates to HTB-54 cells. Briefly: MTT cell viability assay, HTB-54. In kind it is cell-based. Conditions: Homo sapiens, 48 h; for activity at 10 µM / activity at 50 µM: read-out: Growth (%) HTB-54. The method in brief:
as §1

The subject of the next experiment is 184B5 cells. Briefly: MTT cell viability assay, non-malignant 184B5. As to conditions: Homo sapiens, non-malignant breast cells, 48 h. In kind it is cell-based. On the procedure: (§2) The cell viability assay of each compound was carried out using the MTT assay. Each compound was dissolved in dimethyl sulfoxide (DMSO) at a concentration of 0.01 M. Serial dilutions were prepared with a non-supplemented culture medium. The effect of each compound on the cell viability was determined at two different concentrations (10 and 50 µM) in MCF-7, HTB-54, and HT-29 cells. In addition, the selected compounds were tested at six different concentrations between 0.1–100 µM in MCF-7, T47D, H1299, HTB-54, and 184B5 cells.
(§3) Briefly, 1 × 10^4 tumor cells/well or 2 × 10^4 non-tumorigenic cells/well were grown in 96-well plates for 12 h. Then, these cells were incubated with either DMSO (control) or a different concentration of each of the tested compounds for 48 h. Three hours before the termination point, 20 µL of MTT were added to measure the cellular viability. The resultant formazan crystals were dissolved in 50 µL of DMSO, and the absorbance was measured at 570 and 630 nm. The results are expressed as IC50, the half maximal inhibitory concentration. This value was calculated using OriginPro 8.5.1. software (OriginLab, Northampton, MA, USA) by nonlinear curve fitting. Furthermore, the selectivity index (SI) was calculated as the ratio of the IC50 values determined for the non-malignant and the tumor cells (IC50 (184B5)/IC50 (MCF-7). The data were obtained from at least three independent experiments performed in quadruplicates.

Experiment [4] can be described thus: ABTS radical scavenging assay. As to conditions: 0.003 mg/mL. On the procedure: ABTS radical scavenging was assayed with a colorimetric test as well [59]. Briefly, ABTS was dissolved in deionized water at 1 mg/mL and oxidized to ABTS^+• with potassium persulfate (2.45 mM final concentration). This reaction mixture was kept overnight at room temperature in the dark. After radical generation, ABTS^+• was diluted with 50% ethanol until an absorbance of 0.70 ± 0.02 at 734 nm for measurements. The tested compounds were solved in absolute ethanol at a concentration of 1 mg/mL, and 20 µL of this solution were added to 180 µL of the diluted ABTS^+•. After 6 min of incubation, the absorbance at 734 nm was recorded using 50% ethanol as the blank. Trolox and Asc were used as the positive controls. All of the determinations were carried out in triplicate. The same time intervals as in the DPPH assay were also measured. The ability to scavenge ABTS^+• was calculated using the following formula:(2) % ABTS radical scavenging=Acontrol−Asample/Acontrol × 100 where Acontrol refers to the absorbance of the negative control and Asample refers to the absorbance of the tested compounds. The results are expressed as percentage of ABTS radical scavenging ± SD.

For a further experiment, the system named is T47D cells. Briefly: MTT cell viability assay, T47D. It is filed as cell-based. Conditions: Homo sapiens, breast cancer cells, 48 h. As to the method:
as §2, §3

A further experiment deals with H1299 cells. Kind of experiment: MTT cell viability assay, H1299. In kind it is cell-based. Conditions: Homo sapiens, NCI-H1299, lung cancer cells, 48 h. On the procedure:
as §2, §3

Where [5] appears, read: Homo sapiens, MCF7, 10 μM, 48 h.
Where [6] appears, read: Homo sapiens, MCF7, 50 μM, 48 h.

Turning to `O=[Se]([O-])[O-].[Na+].[Na+]` [sodium selenite], in experiment [1], the “DPPH radical scavenging activity” value is on record as “only showed DPPH radical scavenging activity at pH 3.0”.
As for `COc1ccc(NC(=[Se])NC(=O)c2cc3ccccc3s2)cc1` [Compound 9c], the “increase fold of cell survival” value is at most 0.8 fold with HT-29 cells [2] (H2O2 200 µM), at most 1.7 fold with HT-29 cells [2] (H2O2 250 µM) and “up to 3.6 fold” in the experiment with HT-29 cells [2] (H2O2 300 µM). Besides, the activity at 10 µM was 47.9% with HT-29 cells [3], 63% in the experiment on MCF-7 cells (setting [5]) and 64.2% in the experiment on HTB-54 cells (HTB-54). The activity at 50 µM in the experiment on HT-29 cells [3] worked out at 37.3%; in the experiment on MCF-7 cells (setting [6]), 49.2%; in the experiment on HTB-54 cells (HTB-54), 7.1%.
Turning to `Cc1ccc(NC(=[Se])NC(=O)c2ccc3c(c2)OCO3)cc1` [Compound 10b], the results for the activity at 10 µM in the experiment with HT-29 cells [3], in the experiment with MCF-7 cells (setting [5]) and with HTB-54 cells (HTB-54) were 63.3%, 63% and 16.4%, respectively. The activity at 50 µM in the experiment on HT-29 cells [3] amounted to 43.9%; with MCF-7 cells (setting [6]), 7.4%; with HTB-54 cells (HTB-54), 12%. Moreover, the IC50 (commonly the concentration that inhibits the measured activity by half) in the experiment on 184B5 cells is over 100 µM; with MCF-7 cells (Homo sapiens, MCF7, breast cancer cells, 48 h, MTT, read-out: IC50 MCF-7) it was 7.3 ± 0.3 µM; in the experiment with HTB-54 cells (HTB-54, lung cancer cells, MTT, read-out: IC50 HTB-54) it was 1.5 ± 1.8 µM; in the experiment with HTB-54 cells (HTB-54 and H1299 pooled, read-out: IC50 on both lung cancer cells), 1.5 to 7.3 µM; in the experiment on T47D cells, 11.9 ± 1 µM; in the experiment with H1299 cells, 5.9 ± 1.4 µM. Besides, the “reduction of cell growth” value in the experiment with MCF-7 cells (10 μM, 48 h) is reported as “at least 45%”; in the experiment with MCF-7 cells (50 μM, 48 h) it was “more than 85%”. Besides, the “SI (selectivity index)” value with MCF-7 cells (IC50 (184B5)/IC50 (MCF-7)) is reported as over 13.6. For the same compound, the “ABTS radical scavenging activity compared with controls” value in experiment [4] is “potent radical scavenging activity similar to Trolox”.
For `O=C1O[C@H]([C@@H](O)CO)C(O)=C1O` [Asc, Ascorbic acid, reference compound], the “protective effect against H2O2-induced oxidative stress” value with HT-29 cells [2] (0.003 mg/mL) was “disappeared”.
